This note sets out measurements from patent US8198323B2, “Curcumin analogues and uses thereof” (The University of North Carolina at Chapel Hill, priority 2004, dated 2012).

Holding throughout (type): cell-based
In assay [1] the target is T1, mutant AR in LNCaP cells (Homo sapiens, UniProt P10275, T878A).
T1 construct: LNCaP cells, which express a clinically relevant mutant AR; endogenous in cells; host or cells: LNCaP
T1 sequence (P10275 1-920 T878A): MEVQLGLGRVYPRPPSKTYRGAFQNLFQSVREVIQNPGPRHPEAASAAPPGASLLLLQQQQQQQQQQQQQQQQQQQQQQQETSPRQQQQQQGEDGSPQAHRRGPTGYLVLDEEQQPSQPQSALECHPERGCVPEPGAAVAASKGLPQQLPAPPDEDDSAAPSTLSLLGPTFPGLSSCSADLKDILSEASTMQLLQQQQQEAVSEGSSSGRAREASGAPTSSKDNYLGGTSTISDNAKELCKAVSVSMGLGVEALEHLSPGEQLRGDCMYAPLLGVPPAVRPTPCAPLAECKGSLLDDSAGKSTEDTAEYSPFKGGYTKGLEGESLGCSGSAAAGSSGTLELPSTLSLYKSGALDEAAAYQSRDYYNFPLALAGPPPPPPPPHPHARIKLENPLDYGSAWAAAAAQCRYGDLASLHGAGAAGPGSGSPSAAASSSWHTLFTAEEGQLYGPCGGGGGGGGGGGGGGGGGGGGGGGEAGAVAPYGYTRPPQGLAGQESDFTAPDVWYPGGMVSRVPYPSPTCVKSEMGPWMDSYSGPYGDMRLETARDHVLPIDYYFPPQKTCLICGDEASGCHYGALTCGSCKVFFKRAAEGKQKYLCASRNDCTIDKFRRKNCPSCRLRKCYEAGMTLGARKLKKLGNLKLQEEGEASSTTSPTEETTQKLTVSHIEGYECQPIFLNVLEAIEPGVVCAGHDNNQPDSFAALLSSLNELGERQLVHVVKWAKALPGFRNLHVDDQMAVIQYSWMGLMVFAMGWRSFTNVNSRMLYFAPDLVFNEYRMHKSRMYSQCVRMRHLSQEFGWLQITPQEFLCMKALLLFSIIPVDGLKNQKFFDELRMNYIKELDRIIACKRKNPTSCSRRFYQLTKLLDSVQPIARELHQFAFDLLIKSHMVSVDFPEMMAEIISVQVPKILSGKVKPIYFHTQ
The assay can be described thus: LNCaP AR transactivation assay / LNCaP cell growth assay (Table 2). The settings on record: 1 nM DHT, symbols 0, +, ++ not defined. How it is done:
(§1) Cell culture and transfection—Human prostate cancer LNCaP and PC-3 cells were maintained in RPMI medium and Dulbecco's minimum essential medium (DMEM), respectively. Both media were strengthened with penicillin (25 units/mL), streptomycin (25 μg/mL), and 10% fetal calf serum. Androgen receptor transactivation assay, an androgen-dependent reporter gene transcription test, was employed as the primary screening for potential antiandrogen identification. This assay was first performed in LNCaP cells, which express a clinically relevant mutant AR. Once potential compounds were indicated by LNCaP AR transactivation assay, they were re-examined for their potential activity against wild type AR. Wild type AR transactivation assay was performed in PC-3 host cells, which lack an endogenous, functional AR.
(§2) Our previously described conditions for cell transfection were followed (Ohtsu et al, J Medicinal Chem 45: 5037-5042 (2002); Ohtsu et al., Bioorganic & Medicinal Chemistry 11:5083-5090 (2003)). In brief, cells were plated in 24- or 48-well tissue culture dishes twenty-four (PC-3 cells) or forty-eight (LNCaP cells) hours prior to transfection. Subsequently, LNCaP cells were transfected with a reporter gene, MMTV-luciferase, which contains MMTV-LTR promoter and androgen receptor binding element, and PRL-SV40, which served as an internal control for transfection efficiency. PC-3 cells were transfected with a wild type AR expression plasmid, pSG5AR, in addition to the above-mentioned MMTV-luciferase reporter gene and PRL-SV40 internal control. SuperFect (Qiagen, Chatsworth, Calif.) was employed as the transfection reagent following manufacturer's recommendations. At the end of a five-hour transfection, the medium was changed to DMEM or RPMI supplemented with 10% charcoal dextran-stripped, androgen-depleted serum. Twenty-four hours later, the cells were treated with 1 nM of DHT and/or test compounds at the designated concentration for another twenty-four hours. The cells were harvested for luciferase activity assay using Dual Luciferase Assay System (Promega, Madison, Wis.). The derived data were expressed as relative luciferase activity normalized to the internal luciferase control. DHT incubation induced a marked expression of reporter gene.
LNCaP cell growth assay thus was used as an alternative to confirm potential antiandrogens identified by the above-mentioned AR transactivation assay. An MTT analysis, relying upon the conversion of a colorless substrate to reduced tetrazolium by the mitochondrial dehydrogenase, was used. The experimental conditions were detailed elsewhere (Ohtsu et al., Bioorganic & Medicinal Chemistry 11:5083-5090 (2003)). Briefly, cells were plated in 96-well tissue culture plates and then incubated for 5 consecutive days in the presence of 1 nM of DHT and/or test compounds in 10% charcoal dextran-stripped serum-containing RPMI. At the end of incubation, the cells were given MTT (5 mg/ml in PBS) for three hours at 37° C. The resultant precipitate was dissolved in a lysis buffer and then quantitated at a wavelength of 595 nm using a microplate reader. To ensure the accuracy of data derived from the MTT analysis, cell count was performed using duplicate samples.

For assay [2], the target named is T2, wild type AR (Homo sapiens, UniProt P10275).
T2 sequence (P10275 1-920): T1 sequence (P10275 1-920 T878A) with A878T
The assay can be described thus: Wild type AR transactivation assay in PC-3 host cells (Table 2). The settings on record: PC-3 cells transfected with wild type AR, 1 nM DHT; symbols 0, +, ++ not defined. On the set-up: expressed in transfected cells; host or cells: PC-3. How it is done: as §1, §2

The target of assay [3] is T2, wild type AR. The assay can be described thus: AR transactivation assay (MMTV-luciferase), DU-145 cells transfected with wild-type AR and ARA70. On the set-up: expressed in transfected cells; host or cells: DU-145. The note with it: FIG. 3C; for reduction (antiandrogen activity): DU-145 cells transfected with wild-type AR and ARA70; for antiandrogen activity (in words): DU-145 cells, wild-type AR and ARA70. How it is done:
(§3) Cell Culture and Transfections. Human prostate cancer DU145 and PC-3 cells were maintained in Dulbecco's minimum essential medium (DMEM) containing penicillin (25 units/mL), streptomycin (25 μg/mL), and 10% fetal calf serum (FCS). For AR transactivation assay, PC-3 cells were transfected with an AR expression plasmid and reporter gene. Because of a low content of endogenous AR coactivators, DU-145 cells were transfected with expression plasmids for AR and ARA70, and reporter gene.
(§4) Transfections were performed using the SuperFect kit according to manufacturer's procedures (Qiagen, Chatsworth, Calif.). Briefly, 1×10^5 cells were plated on 35-mm dishes 24 h before transfection, and then a reporter plasmid, MMTV-Luciferase, which contains MMTV-LTR promoter and AR-binding element, was co-transfected with an AR expression plasmid (wild type or mutant), or pSG5ARA70. PRL-TK was used as an internal control for transfection efficiency. The total amount of DNA was adjusted to […] with pSG5 in all transcriptional activation assays. After a 2 h transfection, the medium was changed to DMEM-10% charcoal stripped serum medium, and 14-16 h later, the cells were treated with DHT, antiandrogen, or test compounds. After another 14-16 h, the cells were harvested and tested for luciferase activity in luciferase assays (Promega, Dual Luciferase Assay System, Madison, Wis.). Data were expressed in relative luciferase activity as compared to an internal luciferase positive control.

Assay [4] concerns the target T2, wild type AR. The assay can be described thus: AR transactivation assay (MMTV-luciferase), PC-3 cells transfected with wild-type AR. On the set-up: expressed in transfected cells; host or cells: PC-3. The settings on record: PC-3 cell assay system; FIG. 3A. How it is done: as §3
as §4, with “Data were expressed in relative luciferase activity as compared to an internal luciferase positive control.” left out

In assay [5] the target is T3, mutant LNCaP AR (Homo sapiens, UniProt P10275, T878A).
T3 construct: expressed in transfected cells; host or cells: DU-145
T3 sequence (P10275 1-920 T878A): T1 sequence (P10275 1-920 T878A)
The assay can be described thus: AR transactivation assay (MMTV-luciferase), DU-145 cells transfected with mutant LNCaP AR and ARA70. The settings on record: FIG. 3B. How it is done: Cell Culture and Transfections. Human prostate cancer DU145 and PC-3 cells were maintained in Dulbecco's minimum essential medium (DMEM) containing penicillin (25 units/mL), streptomycin (25 μg/mL), and 10% fetal calf serum (FCS). For AR transactivation assay, PC-3 cells were transfected with an AR expression plasmid and reporter gene. Because of a low content of endogenous AR coactivators, DU-145 cells were transfected with expression plasmids for AR and ARA70, and reporter gene. The conditions were followed as previously described in Miyamoto et al., Proc. Natl. Acad. Sci. USA, 95, 7379-7384 (1998), with minor modifications.
as §4

Changes are numbered by the printed parent chain. “Also recorded” adds a separate entry of the source.

Turning to `COc1ccc(/C=C/C(=O)/C=C(O)/C=C/c2ccc(OC)c(O)c2)cc1O` [LL-27B], in assay [1], the “anti-AR activity, LNCaP” value worked out at 0. As to `COc1cc(/C=C/C(O)=C/C(=O)/C=C/c2ccc(OC)c(OC)c2)ccc1O` [LL-17], the “anti-AR activity, LNCaP” value in assay [1] is 0. Consider `COc1cc(/C=C/C(=O)/C=C/c2ccc(O)c(OC)c2)ccc1O` [LL-10], for which the “anti-AR activity, wrAR/PC3” value in assay [2] came out at 0.

In the case of `COC(=O)COc1ccc(C=CC(=O)CC(=O)C=Cc2ccc(OCC(=O)OC)c(OC)c2)cc1OC` [Compound 20], in assay [3], the “reduction (antiandrogen activity)” value is 54% and the “antiandrogen activity (in words)” value is “comparable or more potent antiandrogen activity than HF”. Consider `COc1cc(OC)c(OC)cc1/C=C/C(O)=C/C(=O)/C=C/c1ccc(OC)c(OC)c1` [LL-36], for which the “anti-AR activity, LNCaP” value in assay [1] was 0. As to `CCOC(=O)/C=C/C(C(=O)/C=C/c1ccc(O)c(OC)c1)=C(O)\C=C\c1ccc(O)c(OC)c1` [LL-66], the “anti-AR activity, wrAR/PC3” value in assay [2] worked out at 0. Turning to `COc1ccc(C(=O)CC(=O)c2ccc(OC)c(OC)c2)cc1OC` [Compound 39, 1,3-bis(3,4-dimethoxyphenyl)-1,3-propandione], the “antiandrogen activity (in words)” value in assay [3] is listed as “comparable or more potent antiandrogen activity than HF”. Moreover, the “antagonistic activity against the AR (in words)” value (from here on “antagonistic activity”) in assay [4] and in assay [5] was “less active than 4” throughout. For `COc1ccc(/C=C/C(=O)/C=C(O)/C=C/c2ccc(OC)cc2F)c(F)c1` [HOJ-9], in assay [1], the “anti-AR activity, LNCaP” value worked out at 0. Still for that read-out and setting: the result for `COc1ccc(/C=C/C(=O)/C=C(O)/C=C/c2ccc(OC)c(OC)c2OC)cc1OC` [LL-35] reads 0. Take `COc1cc(/C=C/C(=O)/C=C(O)/C=C/c2ccc(O)c(OC)c2)ccc1O` [Compound 1, Curcumin]: the “antiandrogen activity (in words)” value in assay [3] is “inactive; also recorded: not active”. In addition, the “antagonistic activity” value in assay [4] and in assay [5] was “inactive” throughout. Turning to `COc1cc(C=CC(=O)CC(=O)C=Cc2ccc(OC)c(OC)c2)ccc1O` [Compound 9, Monomethylcurcumin], the “antagonistic activity” value in assay [5] is “significantly less active than 4”.

Turning to `CCOC(=O)CCC(C(=O)C=Cc1ccc(O)c(OC)c1)C(=O)C=Cc1ccc(O)c(OC)c1` (centres unmarked) [Compound 22], in assay [3], the “reduction (antiandrogen activity)” value is 53.8% and the “antiandrogen activity (in words)” value was “comparable or more potent antiandrogen activity than HF”.

`COc1cc(/C=C/C(O)=C/C(=O)/C=C/c2ccc(O)cc2)ccc1O` [LL-18]: the “anti-AR activity, LNCaP” value in assay [1] amounted to 0. As to `O=C(/C=C(O)/C=C/c1ccc(O)o1)/C=C/c1ccc(O)o1` [LL-7], in assay [2], the “anti-AR activity, wrAR/PC3” value is recorded as 0. For the compound `COc1ccc(/C=C/C(=O)C(C)(F)C(=O)/C=C/c2ccc(OC)c(OC)c2)cc1OC` [LL-62], the “anti-AR activity, wrAR/PC3” value in assay [2] turned out to be 0. Regarding `COc1ccc(/C=C/C(=O)/C=C(O)/C=C/c2ccc(OC)c(OC)c2OC)c(OC)c1OC` [LL-32B], the “anti-AR activity, LNCaP” value in assay [1] was 0. With `COc1ccc(/C=C/C(=O)CC(O)/C=C/c2ccc(OC)c(OC)c2)cc1OC` (centres unmarked) [LL-55], in assay [2], the “anti-AR activity, wrAR/PC3” value is on record as 0.
